Literature values as cited in patent US20110158922A1, “Skin Care Compositions and Method of Use Thereof” (priority 2008, published 2011).
No end group written: not given here. *: point of attachment. Palmitoyl = CCCCCCCCCCCCCCCC(=O)*

Columns and labels:
[1] = system: T-T dimmers in DNA, DNA repair, cell viability following UV exposure; settings: in vitro
[2] = system: skin cell energy production; settings: topical application
synthesis of GAGs = settings: in-vitro study
collagen glycation = settings: in vitro

ethylbisiminomethylguaiacol manganese chloride
DNA repair [1]: stimulates DNA repair
cell viability following UV exposure [1]: increasing cell viability following UV exposure
formation of T-T dimmers in DNA ([1]; UV exposure): reduces the formation of T-T dimmers in DNA

CN(CC(=O)O)C(=N)N [creatine]
skin cell energy production [2]: substantial improvement in skin cell energy production

Palmitoyl-Lysysl-Threonyl-Threonyl-Lysyl-Serine (Palmitoyl-KTTKS) [Palmitoyl pentapeptide-4, peptide derived from a collagen precursor]
synthesis of GAGs (synthesis of GAGs): increase synthesis of GAGs

COc1ccc([C@@H]2CC(=O)c3c(O)cc(O[C@@H]4O[C@H](CO[C@@H]5O[C@@H](C)[C@H](O)[C@@H](O)[C@H]5O)[C@@H](O)[C@H](O)[C@H]4O)cc3O2)cc1O [Hesperidin flavonoids, hesperidin]
collagen glycation (collagen glycation): inhibit collagen glycation in vitro
